Experiment [1] deals with fatty (fa/fa) Zucker rats. The experiment in a line: Reduction of glycerol and triglycerides, chronic treatment in fatty Zucker rats. Format: in vivo, rat. An excerpt: The obese (fa/fa) Zucker and its derivative in the Zucker diabetic fatty (ZDF/Drt-fa) are excellent models of diabetes-induced dyspilidemia (Shafrir, E., Diabetes/Metabolism Rev. 8:179-208 (1992); Peterson, R. G., et al., ILAR News 32:16-19 (1990)). The animals develop progressive hypertriglyceridemia and hypercholesterolemia.
Eleven male fatty Zucker rats weighing about 450 grams were randomly divided into 2 groups and their initial body weights recorded. The animals were housed in pairs in a normal 12 hour light/dark cycle at 20±2° C. and fed a standard laboratory rat diet (Beekay rat and mouse diet, Bantin & Kingman, Hull, Humberside, U.K.) overnight ad libitum.
For the group assigned to receive drug treatment, the rats received BIM-23268C at 3 mg/kg, by subcutaneous injection twice a day at 10:00 a.m. and 5:00 p.m. The other group was treated with a subcutaneous injection of 0.1 ml/100 g of saline twice a day at 10:00 a.m. and 5:00 p.m. The animals were subjected to the BIM-23268 or saline treatment for a total of six days.
On the last day of treatment (day 6), food was removed at 5:00 p.m. and the rats fasted overnight. At 9:00 a.m. the next day, the animals were subjected to a glucose challenge, given as a 0.8 gram/kg of glucose orally. Periodic 400 ul of blood samples were taken from the tail vein (Peterson, R. G., ILAR News 32:16-19 (1990)) at 60 min. and 30 min. before, and at 30, 60, 90, and 120 min. after the administration of the glucose challenge (08. gram/kg orally). Aprotinin (Traysylol, Bayer UK, Hayward's Heath, W. Sussex, U.K.) and heparin (Sigma Chemical Co., Poole, Dorset, U.K.) were added to the blood samples to a final concentration of 400 KIU/ml and 100 units/ml, respectively. Plasma fractions were prepared from these samples by centrifugation at 400×G in a microfuge, for the estimation of triglycerides and glycerol. Samples were then stored at -80° C. until assayed.
Plasma glycerol and triglycerides were determined using the Sigma Enzymatic (Tinder) calorimetric assay kit (Cat #337-B, Sigma Chemical Co., Poole, Dorset, U.K.) and measuring absorbance at 540 nm in a spectrophotometer.

In experiment [2] the target is T1, hSSTR-2 (Homo sapiens, UniProt P30874).
T1 construct: expressed in transfected cells; crude membranes
T1 sequence (P30874 whole entry): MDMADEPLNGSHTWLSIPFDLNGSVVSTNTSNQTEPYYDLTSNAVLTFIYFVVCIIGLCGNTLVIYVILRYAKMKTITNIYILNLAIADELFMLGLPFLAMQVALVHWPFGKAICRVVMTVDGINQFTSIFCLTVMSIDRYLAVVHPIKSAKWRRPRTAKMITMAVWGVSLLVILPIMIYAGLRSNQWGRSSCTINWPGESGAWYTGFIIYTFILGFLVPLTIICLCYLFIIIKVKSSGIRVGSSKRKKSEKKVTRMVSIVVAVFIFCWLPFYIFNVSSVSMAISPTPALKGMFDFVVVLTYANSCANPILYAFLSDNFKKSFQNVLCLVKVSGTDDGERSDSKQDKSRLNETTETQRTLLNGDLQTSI
The experiment in a line: Somatostatin receptor binding assay, [125I-Tyr11]somatostatin-14, transfected CHO-K1 membranes. The note with it: 0.05 nM [125I-Tyr11]somatostatin-14, 30 min at 30° C.
Method: (§1) CHO-K1 (ovary, Chinese hamster) cells were obtained from ATCC (ATCC No. CCL 61). The cells were grown and maintained in Ham's F12 media (Gibco BRL, Grand Island, N.Y.) supplemented with 10% fetal bovine serum under standard tissue culture conditions. For transfection, the cells were seeded at a density 1×10^6 /60-cm plate (Baxter Scientific Products, McGraw Park, Ill.). […] CHO-K1 clonal cell lines that have stably inherited the transfected DNA were selected for growth in Ham's F12 media containing 10% fetal bovine serum and 0.5 mg/ml of G418 (Sigma). The cells were ring-cloned and expanded in the same media for analysis.
(§2) Transfected cell lines expressing the human SSTR receptors were clonally expanded in culture and used in the following SSTR binding protocol.
(§3) Crude membranes were prepared by homogenization of the transfected cells in 20 ml of ice-cold 50 mM Tris-HCl with a POLYTRON homogenizer (setting 6, 15 sec). Buffer was added to obtain a final volume of 40 ml, and the homogenate was centrifuged in a Sorval SS-34 rotor at 39,000 g for 10 min at 0-4° C. The resulting supernatant was decanted and discarded. The pellet was rehomogenized in ice-cold buffer, diluted, and centrifuged as before. The final pellet was resuspended in the 10 mM Tris HCl and held on ice for the receptor binding assay.
The final assay volume was 0.3 ml. […]

The target of experiment [3] is T2, hSSTR-3 (Homo sapiens, UniProt P32745).
T2 construct: expressed in transfected cells; crude membranes
T2 sequence (P32745 whole entry): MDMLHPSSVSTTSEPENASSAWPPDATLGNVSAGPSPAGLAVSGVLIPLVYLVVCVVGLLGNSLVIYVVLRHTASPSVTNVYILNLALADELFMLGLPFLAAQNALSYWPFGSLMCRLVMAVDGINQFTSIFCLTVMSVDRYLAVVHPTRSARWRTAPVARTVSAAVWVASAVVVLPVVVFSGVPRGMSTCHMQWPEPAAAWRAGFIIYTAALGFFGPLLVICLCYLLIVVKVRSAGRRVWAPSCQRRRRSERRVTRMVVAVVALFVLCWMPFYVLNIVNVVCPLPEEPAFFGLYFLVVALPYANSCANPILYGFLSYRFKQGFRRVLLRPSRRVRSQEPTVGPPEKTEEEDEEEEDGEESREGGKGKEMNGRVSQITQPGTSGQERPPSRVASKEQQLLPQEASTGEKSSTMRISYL
The experiment is described as above. The note with it: 0.05 nM [125I-Tyr11]somatostatin-14, 30 min at 30° C.
Method: as §1, §2, §3
The final assay volume was 0.3 ml. […]

Experiment [4] addresses T3, hSSTR-4 (Homo sapiens, UniProt P31391).
T3 construct: expressed in transfected cells; crude membranes
The description is as above. The note with it: 0.05 nM [125I-Tyr11]somatostatin-14, 30 min at 30° C.
Method: as §1, §2, §3
The final assay volume was 0.3 ml. […]

For experiment [5], the target named is T4, hSSTR-5 (Homo sapiens, UniProt P35346).
T4 construct: expressed in transfected cells; crude membranes
T4 sequence (P35346 whole entry): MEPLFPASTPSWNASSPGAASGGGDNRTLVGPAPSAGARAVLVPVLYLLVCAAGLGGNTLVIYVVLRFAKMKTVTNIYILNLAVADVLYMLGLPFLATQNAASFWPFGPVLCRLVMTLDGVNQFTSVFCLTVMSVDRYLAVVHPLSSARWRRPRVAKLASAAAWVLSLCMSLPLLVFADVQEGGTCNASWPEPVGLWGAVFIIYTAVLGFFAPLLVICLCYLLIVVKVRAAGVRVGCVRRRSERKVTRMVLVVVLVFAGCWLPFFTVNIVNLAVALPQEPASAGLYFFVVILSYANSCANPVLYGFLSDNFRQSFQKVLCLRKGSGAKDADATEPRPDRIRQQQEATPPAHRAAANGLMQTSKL
The experiment is described as above. Particulars: 0.05 nM [125I-Tyr11]somatostatin-14, 30 min at 30° C.
Method: as §1, §2, §3
The final assay volume was 0.3 ml. […]

Experiment [6] has as its system alloxan diabetic dogs. Particulars: cited from earlier work.
Experiment [7] deals with normal humans. The note with it: cited from earlier work.
Experiment [8] relates to acromegalics. The note with it: cited from earlier work.
[9] abbreviates: 3 mg/kg s.c. twice a day, 6 days, after oral glucose challenge 0.8 gram/kg, vs saline group.
The mark [10] stands for this setting: 3 mg/kg s.c. twice a day, 6 days, samples 30 and 60 min before oral glucose challenge.

Positions of bridges follow the written chain, without caps; N, C: chain ends. Non-standard residues stand in square brackets, D forms with d. Residues, ends and D or L forms follow the SMILES beside them.

What is called Ki is the dissociation constant of the complex between target and ligand, obtained from inhibition or displacement. A higher Ki goes with lower affinity.

T3 sequence (P31391 whole entry): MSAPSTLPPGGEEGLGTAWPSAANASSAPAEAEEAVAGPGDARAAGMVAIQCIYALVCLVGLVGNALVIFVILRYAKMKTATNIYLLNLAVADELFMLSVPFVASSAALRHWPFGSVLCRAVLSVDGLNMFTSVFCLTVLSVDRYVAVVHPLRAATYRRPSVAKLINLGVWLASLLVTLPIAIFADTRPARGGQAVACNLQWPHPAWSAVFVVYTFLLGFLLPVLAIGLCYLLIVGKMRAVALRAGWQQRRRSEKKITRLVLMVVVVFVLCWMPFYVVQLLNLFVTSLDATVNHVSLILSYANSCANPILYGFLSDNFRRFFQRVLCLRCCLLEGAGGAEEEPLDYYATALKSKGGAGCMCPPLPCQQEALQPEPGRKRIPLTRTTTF

On to `C[C@@H](O)[C@@H]1NC(=O)[C@H](CCCCN)NC(=O)[C@@H](Cc2c[nH]c3ccccc23)NC(=O)[C@H](Cc2ccccc2)NC(=O)[C@H](Cc2ccccc2)NC(=O)[C@@H](N)CSSC[C@@H](C(N)=O)NC(=O)[C@H](Cc2ccccc2)NC1=O` [BIM-23268, H-Cys-Phe-Phe-D-Trp-Lys-Thr-Phe-Cys-NH2] (H-CFF[dW]KTFC-NH2; disulfide 1-8 (inferred)), for which, in experiment [1] (setting [9]), the “plasma glycerol through the 2-hour test period” value was “significantly lower” and the “plasma triglycerides through the 2-hour test period” value was “significantly lower”. In experiment [1] (setting [10]), the plasma glycerol result is reported as “significantly lowered” and the plasma triglycerides entry is recorded as “significantly lowered”. The hypertriglyceridemia entry in experiment [1] (6-day treatment period at the prescribed dose) is recorded as “effective in reducing hypertriglyceridemia”.

For the molecule `C[C@@H](O)[C@@H]1NC(=O)[C@H](CCCCN)NC(=O)[C@@H](Cc2c[nH]c3ccccc23)NC(=O)[C@H](Cc2ccc(O)c(I)c2)NC(=O)[C@H](Cc2ccccc2)NC(=O)[C@@H](N)CSSC[C@@H](C(N)=O)NC(=O)[C@H](Cc2ccccc2)NC1=O` [BIM-23313, H-Cys-Phe-Tyr(I)-D-Trp-Lys-Thr-Phe-Cys-NH2], the inhibition constant Ki in experiment [2] amounted to 4.78 nM; in experiment [3], 25.5 nM; in experiment [4], 55.3 nM; in experiment [5], 0.3 nM.

Turning to `C[C@H](N)C(=O)NCC(=O)N[C@H]1CSSC[C@@H](C(=O)O)NC(=O)[C@H](CO)NC(=O)[C@H]([C@@H](C)O)NC(=O)[C@H](Cc2ccccc2)NC(=O)[C@H]([C@@H](C)O)NC(=O)[C@H](CCCCN)NC(=O)[C@H](Cc2c[nH]c3ccccc23)NC(=O)[C@H](Cc2ccccc2)NC(=O)[C@H](Cc2ccccc2)NC(=O)[C@H](CC(N)=O)NC(=O)[C@H](CCCCN)NC1=O` [somatostatin], the plasma triglyceride concentrations result in experiment [6], in experiment [7] and in experiment [8] was “reduce plasma triglyceride concentrations” each time.
